Experimental data as given in paper PMC4348036, “Structural and Functional Investigation of Flavin Binding Center of the NqrC Subunit of Sodium-Translocating NADH:Quinone Oxidoreductase from Vibrio harveyi” (PLoS ONE, 2015).

Target: T1, holoNqrC' (NqrC subunit of Na+-translocating NADH:quinone oxidoreductase, soluble flavin-binding domain) (Vibrio harveyi, UniProt K5TWQ4)
T1 construct: soluble truncated NqrC without N-terminal transmembrane helix, residues 33-261, C-terminal 6xHis tag; E. coli, co-expressed with flavin transferase ApbE (plasmids pMshC3 + pdhis3); model covers residues 36-261
T1 sequence (K5TWQ4 33-261): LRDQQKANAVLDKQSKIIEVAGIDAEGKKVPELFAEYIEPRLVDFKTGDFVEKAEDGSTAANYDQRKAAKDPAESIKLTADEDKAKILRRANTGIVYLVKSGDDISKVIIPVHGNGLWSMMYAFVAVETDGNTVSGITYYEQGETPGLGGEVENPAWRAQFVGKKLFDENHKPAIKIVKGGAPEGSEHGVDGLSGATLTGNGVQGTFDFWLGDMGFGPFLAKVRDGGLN
Test: X-ray crystallography, […] Å
Details: covalent; phosphoester bond to Thr229, attached in vivo by flavin transferase ApbE; pH 6.8

Cc1cc2nc3c(=O)[nH]c(=O)nc-3n(C[C@H](O)[C@H](O)[C@H](O)COP(=O)(O)O)c2cc1C [FMN]
X-ray crystallography, 1.56 Å: The electron density of Thr229 side chain unambiguously demonstrates its flavinylation.
